Data reported in publication PMC6060375 (Drug Delivery, 2018).

What was measured:
[1] = Tissue distribution of TA in tumor-bearing nude mice (GC-MS/MS); type: in vivo; settings: BALB/c nude, mouse, spleen, intravenous; TA measured after treatment of nude mice with mPEG2K-SA-TA; dose group not stated; read-out: tissue exposure to TA in spleen
Experimental: In order to better support the anti-tumor evaluation and following histological assay, the harvested tissues were prepared as abovementioned method to monitor the amount of TA by GC–MS/MS in these tissues, including heart, liver, spleen, lung, kidney and tumor.

[2] = Pharmacokinetics of TA in rats after i.v. administration; type: in vivo, Sprague–Dawley (SD) rats; settings: both sexes, Sprague-Dawley, rat, plasma, iv, total TA, 3 mg/kg TA equivalent
Experimental: Sprague–Dawley (SD) rats (male and female, 300 ± 30 g) were purchased from SIPPR/BK Experimental Animal Co., Ltd (Shanghai, China). All animals were kept in a humanized environment, with the temperature maintained at 20 ± 2 °C and relative humidity at 50 ± 10%. All the animal procedures were performed following the approved protocol. SD rats were randomly divided into different groups (n = 4 in each group). Rats from different groups were intravenously (i.v.) administrated with TA solution, PEGylated TA solution mPEG2K-SA-TA, respectively. At the designated time points, the blood samples were collected into polyethylene tubes containing EDTA at 0, 0.083, 0.167, 0.5, 0.75, 1, 2, 4, 8, 12, 24, 36 and 48 h and then centrifuged at 12,000 rpm for 5 min to obtain plasma. The plasma samples were stored at −80 °C till analysis. The harvested plasma samples were prepared by sample direct saponification or extraction and analyzed by GC–MS/MS (Wang et al., [2015]). […]
The pharmacokinetic parameters were calculated by a noncompartmental analysis using WinNonlin (Version 6.4; Pharsight, Mountain View, CA, USA). […] The systemic exposure to TA (area under the plasma concentration versus time profile from the dosing time to the terminal sampling time, AUC0−t) was calculated by trapezoidal rule. […]

concentration at 21 days [1]: 4170 ng/g | half-life ([2]; read-out: elimination half-life (t1/2) (converted)): 2.57 h | MRT ([2]; read-out: mean residence time): 2.95 h
SMILES: CCCCCCCCCCCCCCCCCCCCCCCCCCCCCCO [TA, Triacontanol]
